Patent publication US20170107203A1, “HETEROCYCLIC INHIBITORS OF THE SODIUM CHANNEL” (EPIRUS BIOPHARMACEUTICALS, INC., priority 2014, published 2017)

Target: T1, human Nav1.7 (Homo sapiens, UniProt Q15858)
T1 construct: expressed in transfected cells
Assay: Assessment of Nav1.7 activity on PatchXpress (voltage dependence / slow inactivation parameters)
Type: cell-based
Details: compound at 10 μM, relative to 0.2% DMSO vehicle control; for hNav1.7: Reduction in current at 20 mV (normalized data) Delta Ratio: before/after 30 sec conditioning pulse at 20 mV; for hNav1.7: Shift in voltage dependence of inactivation (mV) Delta Vhalf: PatchXpress
Summary of the method: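 HEK293F cells stably co-expressing hNav1.7 and β1 were recorded by automated patch clamp in TEA-based external solution (50 mM NaCl, pH 7.4) with CsF internal solution (pH 7.2). A variable conditioning prepulse inactivated channels, followed by a brief hyperpolarizing step and a depolarizing test pulse. Compounds at 10 μM were compared with 0.2% DMSO vehicle across four parameters.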

T1 sequence (Q15858 whole entry): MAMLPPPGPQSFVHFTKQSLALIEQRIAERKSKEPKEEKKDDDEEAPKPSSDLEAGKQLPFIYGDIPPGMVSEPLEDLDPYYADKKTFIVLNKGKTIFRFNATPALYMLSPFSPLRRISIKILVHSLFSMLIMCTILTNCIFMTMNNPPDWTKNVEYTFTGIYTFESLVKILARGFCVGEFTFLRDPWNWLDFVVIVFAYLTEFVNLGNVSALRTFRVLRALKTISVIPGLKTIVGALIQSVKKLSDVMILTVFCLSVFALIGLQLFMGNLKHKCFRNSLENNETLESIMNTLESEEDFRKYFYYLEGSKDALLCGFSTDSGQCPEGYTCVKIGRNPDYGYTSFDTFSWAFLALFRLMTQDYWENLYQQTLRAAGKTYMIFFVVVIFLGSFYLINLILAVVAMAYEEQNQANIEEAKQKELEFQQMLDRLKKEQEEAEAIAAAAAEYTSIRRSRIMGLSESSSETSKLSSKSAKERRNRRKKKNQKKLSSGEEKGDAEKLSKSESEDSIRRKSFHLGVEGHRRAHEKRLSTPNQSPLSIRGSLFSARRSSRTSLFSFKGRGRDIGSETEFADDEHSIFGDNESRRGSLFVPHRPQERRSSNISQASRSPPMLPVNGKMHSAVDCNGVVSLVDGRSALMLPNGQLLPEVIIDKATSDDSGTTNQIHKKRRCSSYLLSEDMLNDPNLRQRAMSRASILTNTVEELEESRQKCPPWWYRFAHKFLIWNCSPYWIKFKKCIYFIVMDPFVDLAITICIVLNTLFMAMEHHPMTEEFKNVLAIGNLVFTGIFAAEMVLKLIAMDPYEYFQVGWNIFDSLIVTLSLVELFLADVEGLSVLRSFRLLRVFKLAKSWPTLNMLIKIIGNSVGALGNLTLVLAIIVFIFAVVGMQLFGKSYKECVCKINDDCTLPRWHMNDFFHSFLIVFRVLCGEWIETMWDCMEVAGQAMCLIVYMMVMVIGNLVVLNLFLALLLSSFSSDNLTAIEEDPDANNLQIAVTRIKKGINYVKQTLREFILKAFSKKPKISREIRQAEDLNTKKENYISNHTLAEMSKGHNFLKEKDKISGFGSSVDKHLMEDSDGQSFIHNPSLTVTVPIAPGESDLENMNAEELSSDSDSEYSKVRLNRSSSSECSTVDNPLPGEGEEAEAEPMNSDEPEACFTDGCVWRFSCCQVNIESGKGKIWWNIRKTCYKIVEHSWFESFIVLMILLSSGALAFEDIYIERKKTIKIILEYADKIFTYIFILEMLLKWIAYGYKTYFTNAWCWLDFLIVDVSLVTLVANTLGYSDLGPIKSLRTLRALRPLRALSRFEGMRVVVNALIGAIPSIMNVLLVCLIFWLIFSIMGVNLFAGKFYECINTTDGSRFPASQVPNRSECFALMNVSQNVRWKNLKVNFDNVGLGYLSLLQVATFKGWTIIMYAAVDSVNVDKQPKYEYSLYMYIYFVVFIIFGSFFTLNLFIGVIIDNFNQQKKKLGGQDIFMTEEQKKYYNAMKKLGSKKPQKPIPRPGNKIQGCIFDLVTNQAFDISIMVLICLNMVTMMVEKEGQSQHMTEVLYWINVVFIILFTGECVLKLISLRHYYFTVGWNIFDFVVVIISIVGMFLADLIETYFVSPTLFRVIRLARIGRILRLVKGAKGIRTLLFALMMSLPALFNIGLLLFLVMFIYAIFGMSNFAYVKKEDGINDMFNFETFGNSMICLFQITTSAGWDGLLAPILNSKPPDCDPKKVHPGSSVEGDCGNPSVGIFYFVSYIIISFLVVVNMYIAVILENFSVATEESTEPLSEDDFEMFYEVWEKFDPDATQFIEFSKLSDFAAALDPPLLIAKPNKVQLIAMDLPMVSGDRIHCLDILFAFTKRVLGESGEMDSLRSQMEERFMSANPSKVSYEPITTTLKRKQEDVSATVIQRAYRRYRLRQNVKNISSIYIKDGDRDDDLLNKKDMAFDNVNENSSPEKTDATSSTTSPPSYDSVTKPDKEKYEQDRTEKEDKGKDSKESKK
T1 sequence (Q07699 19-218 partner): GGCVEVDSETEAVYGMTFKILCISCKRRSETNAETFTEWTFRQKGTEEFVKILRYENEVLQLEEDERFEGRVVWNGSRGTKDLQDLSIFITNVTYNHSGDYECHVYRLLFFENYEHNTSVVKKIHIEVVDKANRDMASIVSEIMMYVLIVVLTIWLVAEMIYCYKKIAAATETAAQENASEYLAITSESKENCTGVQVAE

Row | Compound | hNav1.7: Reduction in current at 20 mV (normalized data) Delta Ratio | hNav1.7: Voltage dependence of activation (mV) VDEP | hNav1.7: Voltage dependence of fast inactivation (mV) VDEP | hNav1.7: Shift in voltage dependence of inactivation (mV) Delta Vhalf
1 | C[C@@H](NC(=O)CN1CCNCC1=O)c1ccc(OCC(F)(F)F)cn1 [Compound 81, (R)-2-(2-oxopiperazin-1-yl)-N-(1-(5-(2,2,2-trifluoroethoxy)pyridin-2-yl)ethyl)acetamide] | −0.02 | −10.3 mV | −5 mV | −2.8 mV
2 | O=C1NC(=O)C(c2cc(C(F)(F)F)cc(C(F)(F)F)c2)N1 (centres unmarked) [Compound 41, 5-(3,5-bis(trifluoromethyl)phenyl) imidazolidine-2,4-dione] | 0.00 | −9.00 mV | −5.30 mV | −2.80 mV
3 | CC(C)(c1nc2cc(C(F)(F)F)cc(C(F)(F)F)c2[nH]1)N1CCNCC1=O [Compound 60, 1-(2-(4,6-bis(trifluoromethyl)-1H-benzo[d]imidazol-2-yl)propan-2-yl)piperazin-2-one] | −0.19 | −8.3 mV | −3.8 mV | −9.2 mV
4 | CC12CC3CC(C)(C1)CC(NC(=O)CCN)(C3)C2 [Compound 46, 3-amino-N-(3,5-dimethyladamantan-1-yl)propanamide] | −0.04 | −7.90 mV | −4.50 mV | −1.70 mV
5 | COC[C@@H](N)C(=O)NCC(=O)NCc1cc(C(F)(F)F)cc(C(F)(F)F)c1 [Compound 80, (R)-2-amino-N-(2-((3,5-bis(trifluoromethyl)benzyl)amino)-2-oxoethyl)-3-methoxypropanamide] | −0.03 | −9.3 mV | −3.8 mV | −7.2 mV
6 | N[C@@H](c1ccc(F)cc1)c1nc2cc(C(F)(F)F)cc(C(F)(F)F)c2[nH]1 [Compound 58, (S)-(4,6-bis(trifluoromethyl)-1H-benzo[d]imidazol-2-yl)(4-fluorophenyl)methanamine] | −0.21 | −4 mV | −4.9 mV | −8.6 mV
7 | N[C@H](Cc1cccc(C(F)(F)F)c1)C(=O)NCc1nc2ccc(-c3ccc(F)c(Cl)c3)cc2[nH]1 [Compound 71, (R)-2-amino-N-((6-(3-chloro-4-fluorophenyl)-1H-benzo[d]imidazol-2-yl)methyl)-3-(3-(trifluoromethyl)phenyl)propanamide] | −0.07 | −10.5 mV | −6.3 mV | −8.5 mV
8 | Cc1cccc(C)c1OCC(C)NC(=O)C(C)(C)CC(=O)N1CCNCC1 (centres unmarked) [Compound 33, N-(1-(2,6-dimethylphenoxy)propan-2-yl)-2,2-dimethyl-4-oxo-4-(piperazin-1-yl)butanamide] | −0.07 | −8.70 mV | −6.00 mV | −5.30 mV
9 | COC[C@@H]1C(=O)N(Cc2cc(C(F)(F)F)cc(C(F)(F)F)c2)CCN1C(C)=O [Compound 92, (R)-4-acetyl-1-(3,5-bis(trifluoromethyl)benzyl)-3-(methoxymethyl)piperazin-2-one] | 0.01 | −7.1 mV | −3.9 mV | −2.2 mV

More lines, now with the values ahead:

Row | hNav1.7: Reduction in current at 20 mV (normalized data) Delta Ratio | hNav1.7: Voltage dependence of activation (mV) VDEP | hNav1.7: Voltage dependence of fast inactivation (mV) VDEP | hNav1.7: Shift in voltage dependence of inactivation (mV) Delta Vhalf | Compound
10 | −0.02 | −5.6 mV | −8.7 mV | −2.5 mV | C[C@@H](NC(=O)[C@@H]1CCCN1)c1ccc(OCC(F)(F)F)cn1 [Compound 82, (S)-N-((R)-1-(5-(2,2,2-trifluoroethoxy)pyridin-2-yl)ethyl)pyrrolidine-2-carboxamide]
11 | −0.01 | −10.6 mV | −4.4 mV | −3.6 mV | O=C(Cc1nc2cc(F)cc(F)c2[nH]1)NC1CCNCC1 [Compound 89, 2-(4,6-difluoro-1H-benzo[d]imidazol-2-yl)-N-(piperidin-4-yl)acetamide]
12 | −0.17 | −8.1 mV | −6.4 mV | −9.7 mV | O=C1CNCCN1Cc1nc2cc(Br)ccc2[nH]1 [Compound 63, 1-((6-bromo-1H-benzo[d]imidazol-2-yl)methyl)piperazin-2-one]
13 | −0.13 | −9.7 mV | −7.6 mV | −7.8 mV | CC(C)(CC(=O)N1CCNCC1)c1nc2cc(F)cc(F)c2[nH]1 [Compound 67, 3-(4,6-difluoro-1H-benzo[d]imidazol-2-yl)-3-methyl-1-(piperazin-1-yl)butan-1-one]
14 | −0.1 | −11.6 mV | −4.9 mV | −11.4 mV | O=C1CNCCN1CCCc1nc2cc(F)cc(F)c2[nH]1 [Compound 68, 1-(3-(4,6-difluoro-1H-benzo[d]imidazol-2-yl)propyl)piperazin-2-one]
15 | 0.02 | −6.7 mV | −2.4 mV | 0 mV | FC(F)(F)c1cc(C(F)(F)F)c2nc([C@H]3CCCCN3)[nH]c2c1 [Compound 84, (R)-2-(piperidin-2-yl)-5,7-bis(trifluoromethyl)-1H-benzo[d]imidazole]
16 | 0.01 | −5 mV | −4.1 mV | −3.1 mV | O=C1CNCCN1Cc1cc(C(F)(F)F)cc(C(F)(F)F)c1 [Compound 91, 1-(3,5-bis(trifluoromethyl)benzyl)piperazin-2-one]
17 | −0.19 | −11.3 mV | −5.1 mV | −9.2 mV | O=C(CCc1nc2cc(C(F)(F)F)cc(C(F)(F)F)c2[nH]1)N1CCNCC1 [Compound 61, 3-(4,6-bis(trifluoromethyl)-1H-benzo[d]imidazol-2-yl)-1-(piperazin-1-yl)propan-1-one]
18 | −0.17 | −5.90 mV | −4.00 mV | −23.80 mV | CN[C@H](CC(C)C)C(=O)NCCOc1cc(C(F)(F)F)cc(C(F)(F)F)c1 [Compound 13, (R)-N-(2-(3,5-bis(trifluoromethyl)phenoxy)ethyl)-4-methyl-2-(methylamino)pentanamide]
19 | 0.00 | −5.20 mV | −10.40 mV | −4.20 mV | NC1(C(=O)NCCOc2cc(C(F)(F)F)cc(C(F)(F)F)c2)CC1 [Compound 21, 1-amino-N-(2-(3,5-bis(trifluoromethyl)phenoxy)ethyl) cyclopropane-1-carboxamide]
20 | −0.07 | −5.10 mV | −7.00 mV | −6.20 mV | O=C(NC12CC3CC(CC(C3)C1)C2)[C@@H]1CCCN1 [Compound 45, (S)-N-(adamantan-1-yl)pyrrolidine-2-carboxamide]
